This note sets out measurements from US5393744A, “Glucosyl phosphotriesters of thymidine” (Institut Pasteur, priority 1988, dated 1995).

What all share (type): cell-based
The test system of assay [1] is HIV-1 virus. The assay can be described thus: Replication of HIV-1 in macrophages of sero-negative donors, continuous culture (reverse transcriptase activity). The protocol:
(§1) The drugs 6651, AZT, 6714 and ddT were diluted in DMSO.
(§2) The virus HIV-1 utilized is derived from a culture supernatant of CEM-LAV 1 cells; these latter are maintained by the addition at each passage (every 3 or 4 days) of uninfected CEM cells. The titre of the virus in the clarified culture supernatant is higher than 10^6 cpm/ml in reverse transcriptase activity and 10^3 infectious units/ml on lymphocytes of sero-negative donors.
(§3) The macrophages were obtained from a deleucocytation pocket. The mononucleated cells were separated on a Ficoll^R gradient. The cells were adjusted to 50.10^6 cells/ml in the RPMI 1640 medium (MBA) containing 20% fetal calf serum (Flow), 10 mM Hepes (Sigma), 1% of PSN and 1% of glutamine (Gibco). After 1 h of incubation at 4° C. with gentle shaking, the macrophages agglutinate among themselves. The agglutinated macrophages are sedimented for 15 mn at 4° C. The supernatant containing an enrichment in lymphocytes was removed and the pellet enriched in macrophages was diluted to 5.10^6 cells/ml in the medium previously described. The cell suspension was then placed in Petri dishes of 60 mm diameter and placed at 37° C. for 1 h 30. The unattached cells are removed and the washed cell carpet was then detached with a scraper. The cells thus recovered were used directly for the study.
(§4) For this study, the production of HIV-1 virus by infected macrophages in the presence or absence of the drugs 6714 or ddT and 6651 or AZT were monitored either in continuous culture for at least 30 days or after lysis of the macrophages at day +14 and infection of lymphocytes by this lysate.
For each test, 15.10^6 cells were or were not infected with the HIV-1 virus (6000 cpm/10^6 cells). After 1 h of absorption at 37° C., the cells were placed in 6-wells Costar plates and 5.10^-5 M or 10^-5 M of the drugs 6714 and ddT and 10^-5 M, 10^-6 M or 10^-7 M of the drugs 6651 and AZT were added to the culture medium. The medium was changed every 3 or 4 days and the reverse transcriptase activity was determined in the culture supernatant. The drugs were added at each passage to the culture medium at the respective concentrations indicated above.
(§5) 3) Measurement of the reverse transcriptase activity
(§6) The reverse transcriptase activity is assayed starting from 1 ml of culture supernatant concentrated 100 times by ultra-centrifugation for 5 mn at 95.000 rpm (Rotor TL 100^R Beckman).
(§7) The pellet is resuspended in 10 μl of NTE Triton^R ×100 0.1%.
(§8) After 1 h at 37° C., the acid-insoluble products are precipitated by 20% trichloroacetic acid, filtered onto 0.45μ Millipore^R and the B radioactivity is measured with the aid of a Kontron scintillation counter.

For assay [2], the system named is HIV-1 virus. Kind of assay: Infection of activated lymphocytes by the lysates of infected macrophages (co-culture, reverse transcriptase activity). On the procedure: as §1, §2
The lymphocytes were isolated from the peripheral blood of sero-negative donors on a Ficoll^R gradient (MSL, Eurobio). The lymphocytes thus obtained were stimulated with the phytohemaglutinin p(PHA-p) for 3 days before their utilization.
The lymphocytes are cultivated in RPMI 1640 medium, supplemented with 10% of fetal calf serum, 10% of interleukin 2, 2 μg/ml of polybrene, 1% of glutamine, 1% of antibiotics.
as §3, §4
The quantity of cells placed in culture and the conditions of infection are identical with those previously described.
At day 14 after infection, the macrophages were lysed by two successive freezings to -20° C. and thawings at 37° C. The lysate recovered was then utilized as inoculum to infect 3.10^6 activated lymphocytes derived from a sero-negative donor. After 1 h of absorption, the lymphocytes were adjusted to 10^6 cells per ml and the drugs were added at the concentrations corresponding to those of the lysate.
The lymphocytes were subcultured every 3 or 4 days and an assay of the reverse transcriptase was carried out starting from the culture supernatant at each passage.
as §5, §6, §7, §8

For assay [3], the system named is recombinant retrovirus of murine origin (MoMLV). The assay can be described thus: Residual virus (clones of βgal+ cells) after infection of mouse 3T3 test cells with LacZ recombinant MoMLV retrovirus. The conditions noted are these: 3T3 cells; for residual virus (% not inhibited) at 100 µM / residual virus (% not inhibited) at 10 µM / residual virus (% not inhibited) at 1 µM / residual virus (% not inhibited) at 0.1 µM: NIH3T3, 48 hours after infection, mean of several experiments, read-out: % of the residual virus (not inhibited by the product); for residual virus (% not inhibited) at 100 µM: 10^-4 M; for residual virus (% not inhibited) at 10 µM: 10^-5 M; for residual virus (% not inhibited) at 1 µM: 10^-6 M; for residual virus (% not inhibited) at 0.1 µM: 10^-7 M. The protocol:
The virus used is a recombinant retrovirus of murine origin (MoMLV) in which a reporter gene (LacZ) has been introduced.
Fixed amounts of LacZ recombinant retroviruses are placed in the presence of mouse infectable test cells (3T3) with or without the product to be tested. To each recombinant retrovirus corresponds a clone of β gal^+ cells. The number of clones of βgal^+ cells is read 48 hours after the infection. The % of the residual virus (not inhibited by the product) is indicated in the following table (mean of several independent experiments): […]

For `Cc1cn([C@H]2C[C@H](N=[N+]=[N-])[C@@H](CO)O2)c(=O)[nH]c1=O` [AZT, 3'-azido 3'-deoxythymidine, reference compound], the “proliferation of the HIV-1 virus in the macrophages” value with HIV-1 virus [1] (10^-5 M, 10^-6 M and 10^-7 M) was “block the proliferation of the HIV-1 virus in the macrophages”. Also, the “viral production on the lymphocytes with the lysates of treated macrophages” value with HIV-1 virus [2] (10^-5 M, 10^-6 M and 10^-7 M (FIG. 4d)) was “no viral production is obtained on the lymphocytes”. In addition, the “multiplication of the HIV-1 virus at the interior of the macrophage” value in the assay on HIV-1 virus [2] (whatever the concentration tested, 10^-5 M, 10^-6 M and 10^-7 M) is “there is no multiplication of the HIV-1 virus at the interior of the macrophage”. For the same compound, in assay [3], the residual virus (% not inhibited) at 100 µM was 0%, the residual virus (% not inhibited) at 10 µM was determined as 0%, the residual virus (% not inhibited) at 1 µM amounted to 0% and the residual virus (% not inhibited) at 0.1 µM came out at 1%. Besides, the “retroviral activity (in words)” value in assay [3] (recombinant MoMLV) is reported as “active by themselves”.
`Cc1cn([C@H]2C[C@H](N=[N+]=[N-])[C@@H](COP(=O)(O)OC[C@H]3OC(O)[C@H](O)[C@@H](O)[C@@H]3O)O2)c(=O)[nH]c1=O` (stereo partly shown) [compound 6715, 6-glucosyl 5' (3'-azido)-thymidinyl phosphate]: in assay [3], the residual virus (% not inhibited) at 100 µM stood at 0%, the residual virus (% not inhibited) at 10 µM is 0% and the residual virus (% not inhibited) at 1 µM came out at 3%.
Consider `Cc1cn([C@H]2CC[C@@H](CO)O2)c(=O)[nH]c1=O` [ddT, 3'-deoxy-thymidine, reference compound], for which the “proliferation of the HIV-1 virus in the macrophages” value in the assay with HIV-1 virus [1] (5.10^-5 M and 10^-5 M) was “block the proliferation of the HIV-1 virus in the macrophages”. Further, the “viral production by activated lymphocytes” value in the assay on HIV-1 virus [2] (5.10^-5 M) is “seems to be lower”. Further, the “viral production by activated lymphocytes, compared to untreated lysate” value in the assay on HIV-1 virus [2] (10^-5 M) is recorded as “comparable to the untreated lysate”. Also, the “viral production by activated lymphocytes with lysates of infected treated macrophages (general statement)” value in the assay on HIV-1 virus [2] (lysate at day 14) is given as “make it possible to obtain a vital production by activated lymphocytes”. The “multiplication of the HIV-1 virus in the macrophages” value in the assay with HIV-1 virus [2] (whatever the concentration tested, 5.10^-6 M or 10^-5 M) is on record as “there is multiplication of the HIV-1 virus in the macrophages, but the escape of the virus seems to be blocked”. In assay [3], the residual virus (% not inhibited) at 10 µM is 78%, the residual virus (% not inhibited) at 1 µM is 87% and the residual virus (% not inhibited) at 0.1 µM turned out to be 101%.
For the compound `CCCCCCCCCCCCCCCCOP(=O)(OCC1CCC(n2cc(C)c(=O)[nH]c2=O)O1)OCC1OC(O)C(O)C(O)C1O` (stereo not shown) [compound 6650, 6-glucosyl hexadecyl 5'-(3'-deoxy) thymidinyl], in assay [3], the residual virus (% not inhibited) at 10 µM came out at 79%, the residual virus (% not inhibited) at 1 µM was 78% and the residual virus (% not inhibited) at 0.1 µM turned out to be 96%.
